Test results from article PMC11815855, “Exploring the Structure–Activity Relationships of Albumin-Targeted Picoplatin-Based Platinum(IV) Prodrugs” (Inorganic Chemistry, 2025).

Assays:
CT26 tumors = experiment: Anticancer activity in vivo, CT26-bearing Balb/c mice; settings: i.v. on days 3 and 10, dose equimolar to 20 mg/kg picoplatin
Method: Ten-week-old Balb/c mice were purchased from Envigo Laboratories (San Pietro al Natisone, Italy). […] Animals were controlled for distress development every day, and tumor size was assessed regularly by caliper measurement. Tumor volume was calculated using the formula: (length × width^2)/2.
CT26 cells (5 × 10^5 in serum-free medium) were injected subcutaneously into the right flank of male Balb/c mice. Therapy was started when tumor nodules were palpable (day 3). […] Mice were sacrificed by cervical dislocation in the case of a tumor length >20 mm, tumor ulceration, or other signs for distress.

[1] = Serum pharmacokinetics and tumor/organ distribution (Pt by ICP-MS) in CT26-bearing Balb/c mice; assay type: in vivo; settings: single i.v. dose equimolar to 20 mg/kg picoplatin
Method: CT-26 cells (5 × 10^5 cells in 50 μL of serum-free medium) were subcutaneously injected into the right flank of male Balb/c mice. […]. […] and the three maleimide-containing platinum(IV) complexes were dissolved in 30% PEG400-containing 0.9% NaCl and PBS (Cytiva, USA), respectively. […]. After a 10 min clotting period of the blood at RT, the serum was separated by centrifugation (900 g, 10 min, repeated twice). Tumor and organ accumulation of the drug was assessed at 5 and 24 h postadministration (2 animals per time point). Mice were euthanized via cervical dislocation, and their tumors and organs were excised. All collected samples were stored at −20 °C until further processing for Pt concentration analysis by ICP-MS. […] Approximately 15–30 mg of tissue (gravimetrically measured) was digested with 2 mL of 20% nitric acid and 100 μL of H2O2 in an open-vessel graphite digestion system (Labter, ODLAB; AHF Analysentechnik AG, Germany), using PFA vials and lids. […] Quantification of total Pt content was performed on a quadrupole-based ICP-MS instrument (Agilent 7800, Agilent Technologies, Tokyo, Japan), equipped with an Agilent SPS 4 autosampler and a MicroMist nebulizer. […] Rh was used as the internal standard for Pt quantification. […]

SMILES: CC(=O)[O][Pt]([Cl])([Cl])[O]C(=O)NCCN1C(=O)C=CC1=O.Cc1ccccn1.N [Pico-Mal]
- impact on tumor growth (CT26 tumors): inactive
- platinum levels in the kidneys [1]: higher
